Where two headings read alike, the source gives them in different places.
Assays:
Test in all cases: Ras-Raf disruption / FRET / MOA assay (BRAF RBD)
Type in all cases: biochemical
KRAS G12D = KRAS G12D (Homo sapiens, UniProt P01116+P62937, G12D); details: with Cyclophilin A
Summary of the method: (§1)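 Compound-induced Ras–Cyclophilin A ternary complex disrupting BRAF RBD binding, read as IC50 from reduced TR-FRET ratio relative to DMSO. Final: Ras-GMPPNP 12.5 nM, BRAF RBD 50 nM, Cyclophilin A 25 μM, top compound 30 μM (3-fold, 10 points); 3 h at 25 °C, then 1.5 h with detection antibodies.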

KRAS G12S = KRAS G12S (Homo sapiens, UniProt P01116+P62937, G12S); details: with Cyclophilin A
Summary of the method: as §1

KRAS G12V = KRAS G12V (Homo sapiens, UniProt P01116+P62937, G12V); details: with Cyclophilin A
Summary of the method: as §1

KRAS G13C = KRAS G13C (Homo sapiens, UniProt P01116+P62937, G13C); details: with Cyclophilin A
Summary of the method: as §1

KRAS G13D = KRAS G13D (Homo sapiens, UniProt P01116+P62937, G13D); details: with Cyclophilin A
Summary of the method: as §1

KRAS Q61H = KRAS Q61H (Homo sapiens, UniProt P01116+P62937, Q61H)
Summary of the method: as §1

KRAS WT = KRAS WT (Homo sapiens, UniProt P01116+P62937); details: with Cyclophilin A
Summary of the method: as §1

NRAS G12C = NRAS G12C (Homo sapiens, UniProt P01111+P62937, G12C)
Summary of the method: as §1

NRAS Q61K = NRAS Q61K (Homo sapiens, UniProt P01111+P62937, Q61K)
Summary of the method: as §1

NRAS Q61R = NRAS Q61R (Homo sapiens, UniProt P01111+P62937, Q61R)
Summary of the method: as §1

NRAS WT = NRAS WT (Homo sapiens, UniProt P01111+P62937)
Summary of the method: as §1

KRAS G12C = KRAS G12C (Homo sapiens, UniProt P01116+P62937, G12C); details: with Cyclophilin A
Summary of the method: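 TR-FRET read-out after 1.5 h with anti-His Eu-W1024 (10 nM) and anti-GST APC (50 nM), following 3 h at 25 °C of compound (top 30 μM, 3-fold, 10 points) with 25 μM Cyclophilin A, 12.5 nM GMPPNP-loaded K-Ras G12C and 50 nM BRAF RBD; IC50 reported.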

[1] = Ras-Raf disruption, read-out: KRAS G12D FRET data IC50
[2] = Ras-Raf disruption, read-out: KRAS G12S FRET data IC50
[3] = Ras-Raf disruption, read-out: KRAS G12V FRET data IC50
[4] = Ras-Raf disruption, read-out: KRAS G13C FRET data IC50
[5] = Ras-Raf disruption, read-out: KRAS G13D FRET data IC50
[6] = KRAS Q61H, read-out: KRAS Q61H FRET data IC50
[7] = Ras-Raf disruption, read-out: KRAS WT FRET data IC50
[8] = NRAS G12C, read-out: NRAS G12C FRET data IC50
[9] = NRAS Q61K, read-out: NRAS Q61K FRET data IC50
[10] = NRAS Q61R, read-out: NRAS Q61R FRET data IC50
[11] = NRAS WT, read-out: NRAS WT FRET data IC50
[12] = Ras-Raf disruption, read-out: KRAS G12C FRET data IC50
[13] = KRAS G12D FRET data IC50, Ras-Raf disruption
[14] = KRAS G12S FRET data IC50, Ras-Raf disruption
[15] = KRAS G12V FRET data IC50, Ras-Raf disruption
[16] = KRAS G13C FRET data IC50, Ras-Raf disruption
[17] = KRAS G13D FRET data IC50, Ras-Raf disruption
[18] = KRAS WT FRET data IC50, Ras-Raf disruption
[19] = NRAS G12C FRET data IC50, NRAS G12C
[20] = KRAS G12C FRET data IC50, Ras-Raf disruption

Sequence of NRAS WT (P01111 whole entry): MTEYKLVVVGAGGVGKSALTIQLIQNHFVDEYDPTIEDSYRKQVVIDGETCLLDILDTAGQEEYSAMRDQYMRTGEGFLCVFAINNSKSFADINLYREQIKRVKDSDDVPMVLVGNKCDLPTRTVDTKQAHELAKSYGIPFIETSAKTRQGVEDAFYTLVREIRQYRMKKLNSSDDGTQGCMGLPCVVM
Sequence of NRAS WT (P62937 whole entry): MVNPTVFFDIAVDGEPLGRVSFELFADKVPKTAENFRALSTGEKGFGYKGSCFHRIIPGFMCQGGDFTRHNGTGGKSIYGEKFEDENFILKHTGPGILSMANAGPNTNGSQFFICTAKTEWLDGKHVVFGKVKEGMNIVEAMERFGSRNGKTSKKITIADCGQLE
Sequence of KRAS G12C (P01116 1-169 isoform P01116-2 G12C limits assumed): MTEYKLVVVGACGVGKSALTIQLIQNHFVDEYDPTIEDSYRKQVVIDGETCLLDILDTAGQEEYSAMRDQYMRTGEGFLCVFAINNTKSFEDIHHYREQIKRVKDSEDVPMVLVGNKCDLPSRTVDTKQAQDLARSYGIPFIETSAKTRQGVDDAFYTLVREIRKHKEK
Sequence of KRAS G12C (P62937 whole entry): as the sequence (P62937 whole entry) above
Sequence of KRAS WT (P01116 1-169 isoform P01116-2 limits assumed): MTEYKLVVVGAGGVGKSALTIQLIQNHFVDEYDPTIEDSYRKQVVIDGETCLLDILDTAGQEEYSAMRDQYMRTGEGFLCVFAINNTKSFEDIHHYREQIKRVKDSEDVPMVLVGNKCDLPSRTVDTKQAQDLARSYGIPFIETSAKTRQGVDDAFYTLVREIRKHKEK
Sequence of KRAS WT (P62937 whole entry): as the sequence (P62937 whole entry) above
Sequence of KRAS G13D (P01116 1-169 isoform P01116-2 G13D limits assumed): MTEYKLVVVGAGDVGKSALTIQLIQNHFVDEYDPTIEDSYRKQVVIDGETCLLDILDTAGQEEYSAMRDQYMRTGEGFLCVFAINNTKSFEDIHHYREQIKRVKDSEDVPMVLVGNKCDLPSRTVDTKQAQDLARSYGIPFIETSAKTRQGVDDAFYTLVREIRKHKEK
Sequence of KRAS G13D (P62937 whole entry): as the sequence (P62937 whole entry) above
Sequence of KRAS G12S (P01116 1-169 isoform P01116-2 G12S limits assumed): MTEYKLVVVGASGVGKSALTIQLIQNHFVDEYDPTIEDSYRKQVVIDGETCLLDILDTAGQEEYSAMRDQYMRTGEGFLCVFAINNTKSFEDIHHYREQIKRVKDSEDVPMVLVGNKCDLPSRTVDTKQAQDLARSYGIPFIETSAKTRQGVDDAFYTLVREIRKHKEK
Sequence of KRAS G12S (P62937 whole entry): as the sequence (P62937 whole entry) above
Sequence of NRAS Q61K (P01111 whole entry Q61K): as the sequence (P01111 whole entry) above, with Q61K counted along it
Sequence of NRAS Q61K (P62937 whole entry): as the sequence (P62937 whole entry) above
Sequence of NRAS G12C (P01111 whole entry G12C): as the sequence (P01111 whole entry) above, with G12C counted along it
Sequence of NRAS G12C (P62937 whole entry): as the sequence (P62937 whole entry) above
Sequence of NRAS Q61R (P01111 whole entry Q61R): as the sequence (P01111 whole entry) above, with Q61R counted along it
Sequence of NRAS Q61R (P62937 whole entry): as the sequence (P62937 whole entry) above
Sequence of KRAS G13C (P01116 1-169 isoform P01116-2 G13C limits assumed): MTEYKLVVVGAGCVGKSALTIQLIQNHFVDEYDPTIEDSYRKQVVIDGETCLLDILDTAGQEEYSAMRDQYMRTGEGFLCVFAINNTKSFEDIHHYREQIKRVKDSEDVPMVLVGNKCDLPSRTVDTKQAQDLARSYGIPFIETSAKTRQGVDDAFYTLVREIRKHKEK
Sequence of KRAS G13C (P62937 whole entry): as the sequence (P62937 whole entry) above
Sequence of KRAS G12V (P01116 1-169 isoform P01116-2 G12V limits assumed): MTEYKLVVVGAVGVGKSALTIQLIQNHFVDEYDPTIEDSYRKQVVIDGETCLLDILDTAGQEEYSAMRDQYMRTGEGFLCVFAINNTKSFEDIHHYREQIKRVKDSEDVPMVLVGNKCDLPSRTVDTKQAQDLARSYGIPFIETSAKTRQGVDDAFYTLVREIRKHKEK
Sequence of KRAS G12V (P62937 whole entry): as the sequence (P62937 whole entry) above
Sequence of KRAS G12D (P01116 1-169 isoform P01116-2 G12D limits assumed): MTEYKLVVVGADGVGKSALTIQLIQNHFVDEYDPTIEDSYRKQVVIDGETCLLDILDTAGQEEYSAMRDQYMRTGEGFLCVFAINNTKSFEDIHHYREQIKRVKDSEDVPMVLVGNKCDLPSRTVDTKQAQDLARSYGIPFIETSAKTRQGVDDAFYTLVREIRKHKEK
Sequence of KRAS G12D (P62937 whole entry): as the sequence (P62937 whole entry) above
Sequence of KRAS Q61H (P01116 1-169 isoform P01116-2 Q61H limits assumed): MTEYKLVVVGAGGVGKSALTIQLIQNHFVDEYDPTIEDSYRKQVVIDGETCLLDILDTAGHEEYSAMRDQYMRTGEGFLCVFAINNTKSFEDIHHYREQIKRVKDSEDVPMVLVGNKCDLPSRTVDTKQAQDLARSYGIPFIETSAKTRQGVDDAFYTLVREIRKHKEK
Sequence of KRAS Q61H (P62937 whole entry): as the sequence (P62937 whole entry) above

Row | Structure (SMILES) | IC50 (KRAS G12D; [1]) [nM] | IC50 (KRAS G12S; [2]) [nM] | IC50 (KRAS G12V; [3]) [nM] | IC50 (KRAS G13C; [4]) [nM] | IC50 (KRAS G13D; [5]) [nM] | IC50 (KRAS Q61H; [6]) [nM] | IC50 (KRAS WT; [7]) [nM] | IC50 (NRAS G12C; [8]) [nM] | IC50 (NRAS Q61K; [9]) [nM] | IC50 (NRAS Q61R; [10]) [nM] | IC50 (NRAS WT; [11]) [nM] | IC50 (KRAS G12C; [12]) [nM] | other results
1 | CCn1c(-c2cccnc2[C@H](C)OC)c2c3cc(ccc31)-c1cc(O)cc(c1)C[C@H](NC(=O)[C@H](C(C)C)N(C)C(=O)N1CC[C@H](N(C)C(=O)[C@@H]3CN3)C1)C(=O)N1CCC[C@H](N1)C(=O)OCC(C)(C)C2 (atropisomer, axis not shown) [Example 255] | 100 to 1000 | 10 to 100 | 100 to 1000 | 10 to 100 | 100 to 1000 | 10 to 100 | 100 to 1000 | 10 to 100 | 100 to 1000 | 100 to 1000 | 10 to 100 | 10 to 100 | –
2 | CCn1c(-c2cccnc2[C@H](C)OC)c2c3cc(ccc31)-c1cc(O)cc(c1)C[C@H](NC(=O)[C@H](C1CCCC1)N(C)C(=O)CN(C)C(=O)[C@H]1N[C@H]1C1(C#N)CC1)C(=O)N1CCC[C@H](N1)C(=O)OCC(C)(C)C2 [Example 316] | – | – | – | – | – | – | – | – | – | – | – | – | IC50 (KRAS G12D; [13]): 10 to 100 nM; IC50 (KRAS G12S; [14]): 10 to 100 nM; IC50 (KRAS G12V; [15]): 10 to 100 nM; IC50 (KRAS G13C; [16]): 10 to 100 nM; IC50 (KRAS G13D; [17]): 10 to 100 nM; IC50 (KRAS Q61H): 10 to 100 nM; IC50 (KRAS WT; [18]): 10 to 100 nM; IC50 (NRAS G12C; [19]): 10 to 100 nM; IC50 (NRAS Q61K): 100 to 1000 nM; IC50 (NRAS Q61R): 100 to 1000 nM; IC50 (NRAS WT): 10 to 100 nM; IC50 (KRAS G12C; [20]): 10 to 100 nM
3 | CCn1c(-c2cccnc2[C@H](C)OC)c2c3cc(ccc31)-c1cc(O)cc(c1)C[C@H](NC(=O)[C@H](C(C)C)N(C)C(=O)[C@H]1C[C@H](NC(=O)[C@@H]3CN3)C1)C(=O)N1CCC[C@H](N1)C(=O)OCC(C)(C)C2 [Example 167] | 10 to 100 | 10 to 100 | 10 to 100 | 10 to 100 | 10 to 100 | 10 to 100 | 10 to 100 | < 10 | 10 to 100 | 100 to 1000 | 10 to 100 | < 10 | –
4 | CCn1c(-c2cccnc2[C@H](C)OC)c2c3cc(ccc31)-c1cc(O)cc(c1)C[C@H](NC(=O)[C@H](C(C)C)N(C)C(=O)C13CCC(CC1)N3C(=O)[C@H]1CN1)C(=O)N1CCC[C@H](N1)C(=O)OCC(C)(C)C2 [Example 202] | – | – | – | – | – | – | – | – | – | – | – | – | IC50 (KRAS G12D; [13]): 100 to 1000 nM; IC50 (KRAS G12S; [14]): 100 to 1000 nM; IC50 (KRAS G12V; [15]): 100 to 1000 nM; IC50 (KRAS G13C; [16]): 100 to 1000 nM; IC50 (KRAS G13D; [17]): 100 to 1000 nM; IC50 (KRAS Q61H): 10 to 100 nM; IC50 (KRAS WT; [18]): 100 to 1000 nM; IC50 (NRAS G12C; [19]): 10 to 100 nM; IC50 (NRAS Q61K): 100 to 1000 nM; IC50 (NRAS Q61R): 100 to 1000 nM; IC50 (NRAS WT): 100 to 1000 nM; IC50 (KRAS G12C; [20]): 10 to 100 nM
5 | CCn1c(-c2cccnc2[C@H](C)OC)c2c3cc(ccc31)-c1csc(n1)C[C@H](NC(=O)[C@H](C(C)C)N(C)C(=O)N(C)[C@H]1CCN(C(=O)[C@H]3CN3)C1)C(=O)N1CCC[C@H](N1)C(=O)OCC(C)(C)C2 (atropisomer, axis not shown) [Example 296] | 1000 to 10000 | 100 to 1000 | 1000 to 10000 | 100 to 1000 | 1000 to 10000 | 100 to 1000 | 100 to 1000 | 100 to 1000 | 100 to 1000 | 100 to 1000 | 100 to 1000 | 100 to 1000 | –
6 | CCn1c(-c2cccnc2[C@H](C)OC)c2c3cc(ccc31)-c1cc(O)cc(c1)C[C@H](NC(=O)[C@H](C(C)C)N(C)C(=O)[C@@H]1CCN(C(=O)[C@@H]3CN3)[C@@H]1C)C(=O)N1CCC[C@H](N1)C(=O)OCC(C)(C)C2 (atropisomer, axis not shown) [Example 208] | 100 to 1000 | 10 to 100 | 10 to 100 | 10 to 100 | 100 to 1000 | 10 to 100 | 10 to 100 | 10 to 100 | 100 to 1000 | 100 to 1000 | 10 to 100 | 10 to 100 | –
7 | CCn1c(-c2cccnc2[C@H](C)OC)c2c3cc(ccc31)-c1csc(n1)C[C@H](NC(=O)[C@H](C(C)C)N(C)C(=O)N1CC[C@@H](N(C)C(=O)[C@H]3CN3)C1)C(=O)N1CCC[C@H](N1)C(=O)OCC(C)(C)C2 (atropisomer, axis not shown) [Example 226] | 1000 to 10000 | 100 to 1000 | 100 to 1000 | 100 to 1000 | 100 to 1000 | 100 to 1000 | 100 to 1000 | 100 to 1000 | 100 to 1000 | 100 to 1000 | 100 to 1000 | 100 to 1000 | –
8 | CCn1c(-c2cccnc2[C@H](C)OC)c2c3cc(ccc31)-c1cc(O)cc(c1)C[C@H](NC(=O)[C@H](C(C)C)N(C)C(=O)[C@H]1CCN(C(=O)[C@H]3CN3)[C@H]1C)C(=O)N1CCC[C@H](N1)C(=O)OCC(C)(C)C2 (atropisomer, axis not shown) [Example 206] | 1000 to 10000 | 100 to 1000 | 100 to 1000 | 100 to 1000 | 100 to 1000 | 100 to 1000 | 100 to 1000 | 10 to 100 | 1000 to 10000 | 1000 to 10000 | 100 to 1000 | 10 to 100 | –
9 | CCn1c(-c2cccnc2[C@H](C)OC)c2c3cc(ccc31)-c1cc(O)cc(c1)C[C@H](NC(=O)[C@H](C(C)C)N(C)C(=O)N1CC[C@H](N(C)C(=O)[C@H]3CN3)C1)C(=O)N1CCC[C@H](N1)C(=O)OCC(C)(C)C2 (atropisomer, axis not shown) [Example 254] | 100 to 1000 | 100 to 1000 | 100 to 1000 | 10 to 100 | 100 to 1000 | 10 to 100 | 100 to 1000 | 10 to 100 | 100 to 1000 | 100 to 1000 | 100 to 1000 | 10 to 100 | –
10 | CCn1c(-c2cccnc2[C@H](C)OC)c2c3cc(ccc31)-c1cc(O)cc(c1)C[C@H](NC(=O)[C@H](C(C)C)N(C)C(=O)N1C[C@@H]3[C@H]1CCN3C(=O)[C@@H]1CN1)C(=O)N1CCC[C@H](N1)C(=O)OCC(C)(C)C2 (atropisomer, axis not shown) [Example 251] | 1000 to 10000 | 100 to 1000 | 100 to 1000 | 10 to 100 | 1000 to 10000 | 100 to 1000 | 100 to 1000 | 10 to 100 | 1000 to 10000 | 1000 to 10000 | 100 to 1000 | 10 to 100 | –
11 | CCn1c(-c2cccnc2[C@H](C)OC)c2c3cc(ccc31)-c1csc(n1)C[C@H](NC(=O)[C@H](C(C)C)N(C)C(=O)N1CCN(C(=O)[C@H]3CN3)C[C@H]1C)C(=O)N1CCC[C@H](N1)C(=O)OCC(C)(C)C2 [Example 301] | 100 to 1000 | 10 to 100 | 100 to 1000 | 10 to 100 | 100 to 1000 | 10 to 100 | 10 to 100 | 10 to 100 | 10 to 100 | 10 to 100 | 10 to 100 | 10 to 100 | –
12 | CCn1c(-c2cccnc2[C@H](C)OC)c2c3cc(ccc31)-c1csc(n1)C[C@H](NC(=O)[C@H](C(C)C)N(C)C(=O)N1CCC(CN(C)C(=O)[C@H]3CN3)CC1)C(=O)N1CCC[C@H](N1)C(=O)OCC(C)(C)C2 (atropisomer, axis not shown) [Example 326] | 100 to 1000 | 10 to 100 | 10 to 100 | 10 to 100 | 100 to 1000 | 10 to 100 | 10 to 100 | 10 to 100 | 10 to 100 | 10 to 100 | 10 to 100 | 10 to 100 | –
